The source made the active and inactive calls. The rule behind the calls is not given here.
What was measured:
[1] = molecular target: Chromatin remodeling regulator CECR2 (Homo sapiens, UniProt Q9BXF3); test: Displacement of biotinylated small-molecule ligand from recombinant His-tagged CECR2 (unknown origin) measured after 10 mins by TR-FRET assay
[2] = molecular target: Transcription initiation factor TFIID subunit 1 (Homo sapiens, UniProt P21675); test: Displacement of biotinylated small-molecule ligand from recombinant His-tagged TAF1 bromodomain 2 (unknown origin) measured after 10 mins by TR-FRET assay
Chain of Transcription initiation factor TFIID subunit 1 (P21675 whole entry): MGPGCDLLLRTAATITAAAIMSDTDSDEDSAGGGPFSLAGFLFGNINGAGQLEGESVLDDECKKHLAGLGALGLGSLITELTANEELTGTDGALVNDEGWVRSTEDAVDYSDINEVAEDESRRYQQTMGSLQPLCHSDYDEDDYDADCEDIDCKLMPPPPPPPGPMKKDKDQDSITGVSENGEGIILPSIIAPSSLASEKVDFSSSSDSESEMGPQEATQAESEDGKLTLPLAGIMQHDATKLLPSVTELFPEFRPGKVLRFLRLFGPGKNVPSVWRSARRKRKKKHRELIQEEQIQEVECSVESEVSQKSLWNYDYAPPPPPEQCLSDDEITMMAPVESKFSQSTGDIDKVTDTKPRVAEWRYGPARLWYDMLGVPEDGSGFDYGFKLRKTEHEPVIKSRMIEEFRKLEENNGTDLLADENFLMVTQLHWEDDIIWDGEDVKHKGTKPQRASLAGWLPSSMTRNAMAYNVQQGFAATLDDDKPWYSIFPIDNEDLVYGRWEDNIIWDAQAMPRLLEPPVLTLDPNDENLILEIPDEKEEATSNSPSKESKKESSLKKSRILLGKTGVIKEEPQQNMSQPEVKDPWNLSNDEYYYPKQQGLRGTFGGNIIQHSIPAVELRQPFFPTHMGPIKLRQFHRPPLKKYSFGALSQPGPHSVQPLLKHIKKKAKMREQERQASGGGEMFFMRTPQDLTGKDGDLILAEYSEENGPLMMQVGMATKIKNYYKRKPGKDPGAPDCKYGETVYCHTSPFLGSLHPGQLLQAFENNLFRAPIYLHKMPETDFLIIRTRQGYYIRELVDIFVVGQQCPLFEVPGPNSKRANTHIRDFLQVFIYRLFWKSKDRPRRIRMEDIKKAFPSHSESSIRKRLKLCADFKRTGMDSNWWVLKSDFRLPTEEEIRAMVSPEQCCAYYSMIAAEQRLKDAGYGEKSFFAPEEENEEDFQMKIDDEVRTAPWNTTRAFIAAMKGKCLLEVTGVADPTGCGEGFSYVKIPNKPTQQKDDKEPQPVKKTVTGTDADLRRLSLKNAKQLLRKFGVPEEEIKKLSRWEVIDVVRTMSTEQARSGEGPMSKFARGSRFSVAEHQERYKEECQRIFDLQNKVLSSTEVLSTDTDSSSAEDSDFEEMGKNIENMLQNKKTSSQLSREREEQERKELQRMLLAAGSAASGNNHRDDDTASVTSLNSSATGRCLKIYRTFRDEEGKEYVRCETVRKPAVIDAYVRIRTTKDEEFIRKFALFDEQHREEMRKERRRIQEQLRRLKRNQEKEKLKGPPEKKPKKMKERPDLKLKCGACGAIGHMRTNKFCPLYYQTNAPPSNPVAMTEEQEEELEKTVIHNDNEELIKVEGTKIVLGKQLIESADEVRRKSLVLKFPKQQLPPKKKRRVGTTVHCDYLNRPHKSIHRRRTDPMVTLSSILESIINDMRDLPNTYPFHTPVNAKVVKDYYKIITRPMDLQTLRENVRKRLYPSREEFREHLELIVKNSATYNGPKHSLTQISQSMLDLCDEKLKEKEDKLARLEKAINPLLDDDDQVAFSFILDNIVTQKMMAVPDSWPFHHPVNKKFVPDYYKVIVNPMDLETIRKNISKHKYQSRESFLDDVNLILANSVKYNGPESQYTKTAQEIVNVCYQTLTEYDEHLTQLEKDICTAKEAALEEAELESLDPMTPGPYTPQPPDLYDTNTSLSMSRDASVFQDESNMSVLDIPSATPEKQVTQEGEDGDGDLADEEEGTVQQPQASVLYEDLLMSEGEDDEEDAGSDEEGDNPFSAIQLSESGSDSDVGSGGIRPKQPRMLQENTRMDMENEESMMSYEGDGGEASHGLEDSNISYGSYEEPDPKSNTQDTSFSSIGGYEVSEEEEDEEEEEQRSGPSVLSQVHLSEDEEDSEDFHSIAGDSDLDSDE

[3] = molecular target: T1, Bromodomain-containing protein 4 (Homo sapiens, UniProt O60885); test: Displacement of biotinylated small-molecule ligand from recombinant His-tagged BRD4 bromodomain 1 (unknown origin) measured after 10 mins by TR-FRET assay
[4] = molecular target: T1, Bromodomain-containing protein 4; test: Displacement of biotinylated small-molecule ligand from recombinant His-tagged BRD4 bromodomain 2 (unknown origin) measured after 10 mins by TR-FRET assay
[5] = tested on: PC-9; test: Cytotoxicity against human PC-9 cells assessed as decrease in cell number at 1 uM supplemented with fresh medium containing compound every 3 days for 9 days by Beckman Coulter counting method; assay type: functional; design: scale not given: the % may be the effect or the level left; settings: time 3 day
[6] = tested on: PC-9; test: Cytotoxicity against human PC-9 cells assessed as decrease in cell number at 50 nM supplemented with fresh medium containing compound every 3 days for 9 days by Beckman Coulter counting method; assay type: functional, cell-based; settings: time 3.0 day
[7] = tested on: PC-9; test: Cytotoxicity against human PC-9 cells assessed as decrease in drug tolerant population at 50 nM supplemented with fresh medium containing compound every 3 days for 9 days in presence of erlotinib by Beckman Coulter counting method; assay type: functional, cell-based; settings: time 9.0 day

Chain of Chromatin remodeling regulator CECR2 (Q9BXF3 whole entry): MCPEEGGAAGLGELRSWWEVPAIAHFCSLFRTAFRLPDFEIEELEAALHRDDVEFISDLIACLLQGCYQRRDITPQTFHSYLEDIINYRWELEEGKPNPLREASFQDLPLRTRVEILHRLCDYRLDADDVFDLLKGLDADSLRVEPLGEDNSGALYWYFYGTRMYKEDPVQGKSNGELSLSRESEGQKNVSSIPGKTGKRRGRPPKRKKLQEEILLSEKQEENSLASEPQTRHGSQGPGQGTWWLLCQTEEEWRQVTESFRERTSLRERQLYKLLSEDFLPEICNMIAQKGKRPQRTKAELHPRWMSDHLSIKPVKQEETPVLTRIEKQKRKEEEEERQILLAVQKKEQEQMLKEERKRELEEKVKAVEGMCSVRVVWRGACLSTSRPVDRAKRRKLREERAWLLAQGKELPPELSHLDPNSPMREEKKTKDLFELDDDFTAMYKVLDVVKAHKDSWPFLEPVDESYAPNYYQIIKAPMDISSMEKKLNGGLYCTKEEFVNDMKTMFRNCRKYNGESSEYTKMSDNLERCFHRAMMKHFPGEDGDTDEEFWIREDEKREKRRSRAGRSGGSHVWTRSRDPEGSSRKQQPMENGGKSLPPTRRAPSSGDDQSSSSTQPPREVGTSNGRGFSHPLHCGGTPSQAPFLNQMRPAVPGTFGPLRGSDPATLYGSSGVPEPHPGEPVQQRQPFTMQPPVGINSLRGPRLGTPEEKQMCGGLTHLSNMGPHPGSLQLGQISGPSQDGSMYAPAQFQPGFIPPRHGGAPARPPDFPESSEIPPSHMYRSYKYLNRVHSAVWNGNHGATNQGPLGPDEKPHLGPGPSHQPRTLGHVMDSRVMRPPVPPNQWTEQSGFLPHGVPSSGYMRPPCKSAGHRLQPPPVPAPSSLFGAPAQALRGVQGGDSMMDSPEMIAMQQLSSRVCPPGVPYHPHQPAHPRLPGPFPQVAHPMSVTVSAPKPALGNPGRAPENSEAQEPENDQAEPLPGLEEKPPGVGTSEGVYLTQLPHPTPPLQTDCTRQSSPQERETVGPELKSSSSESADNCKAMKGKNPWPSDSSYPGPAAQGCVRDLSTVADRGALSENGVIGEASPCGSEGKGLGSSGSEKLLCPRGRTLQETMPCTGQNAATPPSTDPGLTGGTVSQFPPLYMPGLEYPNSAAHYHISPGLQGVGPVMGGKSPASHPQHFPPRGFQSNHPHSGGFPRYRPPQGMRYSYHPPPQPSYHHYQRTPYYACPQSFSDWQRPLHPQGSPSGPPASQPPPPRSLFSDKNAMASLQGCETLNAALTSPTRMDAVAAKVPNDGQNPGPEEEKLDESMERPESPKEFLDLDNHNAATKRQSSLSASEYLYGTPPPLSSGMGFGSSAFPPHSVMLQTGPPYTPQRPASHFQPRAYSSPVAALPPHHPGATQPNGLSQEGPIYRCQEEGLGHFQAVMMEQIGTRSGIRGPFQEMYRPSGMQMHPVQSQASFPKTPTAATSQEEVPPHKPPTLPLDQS

Structure (SMILES)	IC50 [1]	IC50 [2]	IC50 [3]	IC50 [4]	Activity [5]	Activity [6]	Activity [7]
C#Cc1cccc(Nc2ncnc3cc(OCCOC)c(OCCOC)cc23)c1 [ERLOTINIB]					>98%		
C/C=C/Cn1cc(-c2ccc(C(=O)N3CCOCC3)c(C)c2)c2cc(C)[nH]c2c1=O	1 µM	2.8 µM	6 µM	14.4 µM			
CC(/C=C/C(=O)NO)=C\[C@@H](C)C(=O)c1ccc(N(C)C)cc1						inactive	Active
C/C=C/Cn1cc(-c2ccc(C(=O)N3CCOCC3)cc2)c2cc(C)[nH]c2c1=O	0.81 µM	0.75 µM	1.6 µM	6.7 µM			
C/C=C/Cn1cc(-c2ccc(C(C)(C)O)cc2)c2cc[nH]c2c1=O	4.7 µM	5.5 µM	3.3 µM	6.1 µM			

Second part, led by results:

IC50 [1]	IC50 [2]	IC50 [3]	IC50 [4]	Structure (SMILES)	Activity [5]	Activity [6]	Activity [7]
0.37 µM	0.52 µM	4.2 µM	13.5 µM	C/C=C/Cn1cc(-c2ccc(C(=O)N3CCOCC3)c(C#N)c2)c2cc(C)[nH]c2c1=O			
0.46 µM	1.4 µM	3.5 µM	12.3 µM	C/C=C/Cn1cc(-c2ccc(C(=O)N3CCOCC3)c(Cl)c2)c2cc(C)[nH]c2c1=O			
1 µM	1.7 µM	3.3 µM	17.4 µM	C/C=C/Cn1cc(-c2ccc(C(=O)N3CCOCC3)c(OC)c2)c2cc(C)[nH]c2c1=O			

Source: ChEMBL document CHEMBL5260810, “Inhibition of bromodomain-containing protein 9 for the prevention of epigenetically-defined drug resistance” (Bioorg Med Chem Lett, 2017)
